Read-outs that look alike come from different tables or passages of the source.

From patent publication US9949965B2, “Tricyclic indole Mcl-1 inhibitors and uses thereof” (priority 2014, dated 2018) come the findings set out here.

Assay [1] has as its target T1, recombinant Mcl-1 (residues 172-327) (Homo sapiens, UniProt Q07820).
T1 construct: 14 nM recombinant Mcl-1 (residues 172-327) were added to assay buffer
The assay can be described thus: Bak peptide binding assay: fluorescence polarization anisotropy competition (FITC-Bak BH3 peptide). To be noted: 10 nM FITC-Bak, 14 nM Mcl-1, Ki converted from IC50. The procedure: (§1) Bak Peptide Binding Assay
(§2) Compound affinity was measured using a fluorescence polarization anisotropy competition assay. Anisotropy measurements were carried out in 384-well, black, flat-bottom plates (Greiner Bio-one, Monroe, N.C., USA). The assay was run using a fluorescein isothiocyanate-labeled BH3 peptide derived from Bak (FITC-AHx-[…] […] H2) (SEQ ID NO: 1) that was purchased from GenScript (Piscataway, N.J.) at >95% purity and used without further purification. 10 nM FITC-Bak peptide and 14 nM recombinant Mcl-1 (residues 172-327) were added to assay buffer (3 mM dithiothreitol, 50 mM NaCl, 20 mM Tris, pH 7.5). For selectivity assays, 40 nM Bcl-2 (residues 1-207^A96T,G110R, Δ35-91, replaced with Bcl-xL35-50) or 4 nM Bcl-xL (residues 1-209, loop 45-86 deleted) were incubated with 10 nM FITC-Bak in assay buffer.
(§3) Compounds are diluted in DMSO in a 10-point, 3-fold serial dilution scheme. 2.5 uL compound is added to 47.5 uL of assay buffer containing FITC-Bak and protein, for a final DMSO concentration of 5% and a top concentration of 20 uM. […] The plate was mixed and incubated for 90 minutes at room temperature. Anisotropy is measured at excitation wavelength 480 nm and emission wavelength 535 nm using an EnVision Multi-label plate reader (PerkinElmer, Wellesley, Mass., USA). Fluorescence anisotropy is plotted against compound concentration to generate an IC50 (inhibitor concentration at which 50% of bound peptide is displaced) by fitting the data to a 4-parameter logistic model using XLFit software (Guildford, Surrey, UK). IC50 is converted to a binding dissociation constant (Ki value) according to the formula of Wang Z. FEBS Lett (1996) 3, 245: Ki=[I]50/([L]50/Kd+[P]0/Kd+1) where [I]50 is the concentration of the free inhibitor at 50% inhibition, [L]50 is the concentration of the free labeled ligand at 50% inhibition, [P]0 is the concentration of the free protein at 0% inhibition, Kd represents the dissociation constant of the FITC peptide probe.
For orientation: Polarisation of emitted light reports the rotation of a fluorescent probe.

Assay [2] concerns the target T2, Bcl-xL (residues 1-209, loop 45-86 deleted) (Homo sapiens, UniProt Q07817, DEL45-86).
T2 construct: Bcl-xL (residues 1-209, loop 45-86 deleted)
The assay can be described thus: biochemical. Format: binding. To be noted: Table 3; 10 nM FITC-Bak, 4 nM Bcl-xL; top concentration 20 uM. The procedure: as §1, §2, §3

[3] abbreviates: Ki For Inhibition of Mcl-I Protein, Table 2, binned range.

T2 sequence (Q07817 other isoform, or with tags, fused parts or gaps DEL45-86): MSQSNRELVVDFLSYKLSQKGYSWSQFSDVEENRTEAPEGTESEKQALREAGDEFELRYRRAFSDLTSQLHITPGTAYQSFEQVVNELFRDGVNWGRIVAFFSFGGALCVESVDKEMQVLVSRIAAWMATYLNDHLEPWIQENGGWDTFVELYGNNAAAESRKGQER
T1 sequence (Q07820 172-327): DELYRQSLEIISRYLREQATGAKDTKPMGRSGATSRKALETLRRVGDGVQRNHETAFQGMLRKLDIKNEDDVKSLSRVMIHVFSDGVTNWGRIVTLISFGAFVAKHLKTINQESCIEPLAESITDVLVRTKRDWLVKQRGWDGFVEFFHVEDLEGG

Broadly, the Ki is a measure of affinity in units of concentration, obtained from inhibition or displacement. Consider `Cc1cc(OCCCc2c(C(=O)O)n3c4c(cccc24)OCC3)cc(C)c1Cl` [Example 26, 6-(3-(4-chloro-3,5-dimethylphenoxy)propyl)-2,3-dihydro-[1,4]oxazino[2,3,4-hi]indole-5-carboxylic acid], for which the Ki in assay [1] (setting [3]) is at most 100 nM.

As to `Cc1cc(OCCc2c(C(=O)O)n3c4c(cccc24)SCC3)cc(C)c1Cl` [Example 3, 6-(2-(4-chloro-3,5-dimethylphenoxy)ethyl)-2,3-dihydro-[1,4]thiazino[2,3,4-hi]indole-5-carboxylic acid], the Ki in assay [1] (setting [3]) lay within 1000 to 9990 nM.

Turning to `O=C(O)c1c(CCCOc2cccc3ccccc23)c2cccc3c2n1CCS3` [Example 7, 6-(3-(naphthalen-1-yloxy)propyl)-2,3-dihydro-[1,4]thiazino[2,3,4-hi]indole-5-carboxylic acid], the Ki is 101 to 299 nM in assay [1] (setting [3]); 107 nM in assay [1] (Ki Mcl-1, Table 3); over 20000 nM in assay [2].

Regarding `Cc1cc(OCCCc2c(C(=O)O)n3c4c(c(Cl)ccc24)OCC3)cc(C)c1Cl` [Example 27, 9-chloro-6-(3-(4-chloro-3,5-dimethylphenoxy)propyl)-2,3-dihydro-[1,4]oxazino[2,3,4-hi]indole-5-carboxylic acid], the Ki was at most 100 nM in assay [1] (setting [3]); 9 nM in assay [1] (Table 3, read-out: Ki Mcl-1); over 20000 nM in assay [2].

`O=C(O)c1c(CCCOc2cccc3c2CCCC3)c2cccc3c2n1CCS3` [Example 9, 6-(3-((5,6,7,8-tetrahydronaphthalen-1-yl)oxy)propyl)-2,3-dihydro-[1,4]thiazino[2,3,4-hi]indole-5-carboxylic acid]: in assay [1] (setting [3]), the Ki was 101 to 299 nM.

`O=C(O)c1c(CCOc2cccc3ccccc23)c2cccc3c2n1CCS3` [Example 1, 6-(2-(naphthalen-1-yloxy)ethyl)-2,3-dihydro-[1,4]thiazino[2,3,4-hi]indole-5-carboxylic acid]: in assay [1] (setting [3]), the Ki fell in the range of 1000 to 9990 nM.

As for `Cc1cc(OCCCc2c(C(=O)O)n3c4c(cccc24)CCC3)cc(C)c1Cl` [Example 16, 1-(3-(4-chloro-3,5-dimethylphenoxy)propyl)-5,6-dihydro-4H-pyrrolo[3,2,1-ij]quinoline-2-carboxylic acid], the Ki in assay [1] (setting [3]) lay within 101 to 299 nM.

For the molecule `Cc1cc(OCCCc2c(C(=O)O)n3c4c(cccc24)SCCC3)cc(C)c1Cl` [Example 23, 7-(3-(4-chloro-3,5-dimethylphenoxy)propyl)-3,4-dihydro-2H-[1,4]thiazepino[2,3,4-hi]indole-6-carboxylic acid], the Ki in assay [1] (setting [3]) was at most 100 nM; in assay [1] (Table 3, read-out: Ki Mcl-1) it was 40 nM; in assay [2] it was over 20000 nM.

`Cc1cc(OCCCc2c(C(=O)NS(=O)(=O)c3ccccc3)n3c4c(cccc24)CCC3)cc(C)c1Cl` [Example 17, 1-(3-(4-chloro-3,5-dimethylphenoxy)propyl)-N-(phenylsulfonyl)-5,6-dihydro-4H-pyrrolo[3,2,1-ij]quinoline-2-carboxamide]: the Ki in assay [1] (setting [3]) fell in the range of 301 to 500 nM.

Take `CS(=O)(=O)NC(=O)c1c(CCCOc2cccc3ccccc23)c2cccc3c2n1CCC3` [Example 15, N-(methylsulfonyl)-1-(3-(naphthalen-1-yloxy)propyl)-5,6-dihydro-4H-pyrrolo[3,2,1-ij]quinoline-2-carboxamide]: in assay [1] (setting [3]), the Ki lay in the range of 1000 to 9990 nM.

`O=C(NS(=O)(=O)c1ccccc1)c1c(CCOc2cccc3ccccc23)c2cccc3c2n1CCO3` [Example 6, 6-(2-(naphthalen-1-yloxy)ethyl)-N-(phenylsulfonyl)-2,3-dihydro-[1,4]oxazino[2,3,4-hi]indole-5-carboxamide]: the Ki in assay [1] (setting [3]) lay in the range of 501 to 999 nM.

For `O=C(O)c1c(CCCOc2cccc3ccccc23)c2cccc3c2n1CCC3` [Example 14, 1-(3-(naphthalen-1-yloxy)propyl)-5,6-dihydro-4H-pyrrolo[3,2,1-ij]quinoline-2-carboxylic acid], the Ki in assay [1] (setting [3]) lay within 301 to 500 nM.

As for `O=C(O)c1c(CCCOc2cccc3ccccc23)c2cccc3c2n1CCO3` [Example 25, 6-(3-(naphthalen-1-yloxy)propyl)-2,3-dihydro-[1,4]oxazino[2,3,4-hi]indole-5-carboxylic acid], the inhibitory constant (Ki) in assay [1] (setting [3]) lay within 101 to 299 nM.

With `O=C(O)c1c(CCOc2cccc3ccccc23)c2cccc3c2n1CCC3` [Example 4, 1-(2-(naphthalen-1-yloxy)ethyl)-5,6-dihydro-4H-pyrrolo[3,2,1-ij]quinoline-2-carboxylic acid], the Ki in assay [1] (setting [3]) is 1000 to 9990 nM.

For `Cc1cc(OCCCc2c(C(=O)O)n3c4c(cccc24)SCC3)cc(C)c1Cl` [Example 13, 6-(3-(4-chloro-3,5-dimethylphenoxy)propyl)-2,3-dihydro-[1,4]thiazino[2,3,4-hi]indole-5-carboxylic acid], the Ki in assay [1] (setting [3]) was at most 100 nM; in assay [1] (Table 3, read-out: Ki Mcl-1), 71 nM; in assay [2] it was over 20000 nM.

As for `Cc1cc(OCCCc2c(C(=O)O)n3c4c(c(Cl)ccc24)CCC3)cc(C)c1Cl` [Example 28, 7-chloro-1-(3-(4-chloro-3,5-dimethylphenoxy)propyl)-5,6-dihydro-4H-pyrrolo[3,2,1-ij]quinoline-2-carboxylic acid], the Ki in assay [1] (setting [3]) is at most 100 nM.

As for `O=C(O)c1c(CCCOc2cccc3ccccc23)c2cccc3c2n1CCCS3(=O)=O` [Example 21, 7-(3-(naphthalen-1-yloxy)propyl)-3,4-dihydro-2H-[1,4]thiazepino[2,3,4-hi]indole-6-carboxylic acid 1,1-dioxide], the Ki in assay [1] (setting [3]) is at most 100 nM.

Turning to `Cc1cc(OCCCc2c(C(=O)NS(=O)(=O)c3ccccc3)n3c4c(cccc24)SCCC3)cc(C)c1Cl` [Example 24, 7-(3-(4-chloro-3,5-dimethylphenoxy)propyl)-N-(phenylsulfonyl)-3,4-dihydro-2H-[1,4]thiazepino[2,3,4-hi]indole-6-carboxamide], the Ki in assay [1] (setting [3]) was in the range of 101 to 299 nM.

In the case of `O=C(O)c1c(CCCOc2cccc3ccccc23)c2cccc3c2n1CCCS3` [Example 18, 7-(3-(naphthalen-1-yloxy)propyl)-3,4-dihydro-2H-[1,4]thiazepino[2,3,4-hi]indole-6-carboxylic acid], in assay [1] (setting [3]), the Ki was in the range of 101 to 299 nM.

Turning to `Cc1cc(OCCCc2c(C(=O)O)n3c4c(cccc24)SCC3)ccc1Cl` [Example 12, 6-(3-(4-chloro-3-methylphenoxy)propyl)-2,3-dihydro-[1,4]thiazino[2,3,4-hi]indole-5-carboxylic acid], the Ki in assay [1] (setting [3]) lay within 101 to 299 nM.

For `CS(=O)(=O)NC(=O)c1c(CCCOc2cccc3ccccc23)c2cccc3c2n1CCCS3` [Example 19, N-(methylsulfonyl)-7-(3-(naphthalen-1-yloxy)propyl)-3,4-dihydro-2H-[1,4]thiazepino[2,3,4-hi]indole-6-carboxamide], the Ki in assay [1] (setting [3]) was in the range of 501 to 999 nM.

`O=C(O)c1c(CCCOc2ccc3c(c2)CCCC3)c2cccc3c2n1CCS3` [Example 11, 6-(3-((5,6,7,8-tetrahydronaphthalen-2-yl)oxy)propyl)-2,3-dihydro-[1,4]thiazino[2,3,4-hi]indole-5-carboxylic acid]: the Ki in assay [1] (setting [3]) lay in the range of 301 to 500 nM.

As for `O=C(O)c1c(CCCOc2cccc3ccccc23)c2cccc3c2n1CCC[S+]3[O-]` (stereo not drawn) [Example 20, 7-(3-(naphthalen-1-yloxy)propyl)-3,4-dihydro-2H-[1,4]thiazepino[2,3,4-hi]indole-6-carboxylic acid 1-oxide], the Ki was at most 100 nM in assay [1] (setting [3]) and over 20000 nM in assay [2].

For the molecule `O=C(O)c1c(CCCOc2cccc3ccccc23)c2cccc3c2n1CCS3(=O)=O` [Example 22, 6-(3-(naphthalen-1-yloxy)propyl)-2,3-dihydro-[1,4]thiazino[2,3,4-hi]indole-5-carboxylic acid 1,1-dioxide], in assay [1] (setting [3]), the Ki was at most 100 nM.

Turning to `O=C(O)c1c(CCOc2cccc3ccccc23)c2cccc3c2n1CCO3` [Example 5, 6-(2-(naphthalen-1-yloxy)ethyl)-2,3-dihydro-[1,4]oxazino[2,3,4-hi]indole-5-carboxylic acid], the Ki in assay [1] (setting [3]) was in the range of 1000 to 9990 nM.

For the molecule `CS(=O)(=O)NC(=O)c1c(CCOc2cccc3ccccc23)c2cccc3c2n1CCS3` [Example 2, N-(methylsulfonyl)-6-(2-(naphthalen-1-yloxy)ethyl)-2,3-dihydro-[1,4]thiazino[2,3,4-hi]indole-5-carboxamide], in assay [1] (setting [3]), the inhibition constant (Ki) lay within 1000 to 9990 nM.

For the molecule `CS(=O)(=O)NC(=O)c1c(CCCOc2cccc3ccccc23)c2cccc3c2n1CCS3` [Example 8, N-(methylsulfonyl)-6-(3-(naphthalen-1-yloxy)propyl)-2,3-dihydro-[1,4]thiazino[2,3,4-hi]indole-5-carboxamide], the Ki in assay [1] (setting [3]) lay in the range of 1000 to 9990 nM.
